Measurements published in publication PMC4206749 (Toxicological Research, 2014).

Columns and labels:
Assay type in all cases: cell-based
[1] = system: Escherichia coli strain (WP2 uvrA); assay: Bacterial reverse mutation assay; conditions: E. coli
[2] = system: Salmonella typhimurium strain TA98; assay: Bacterial reverse mutation assay
[3] = system: Salmonella typhimurium strain TA100; assay: Bacterial reverse mutation assay
[4] = system: CHL cells (Chinese hamster lung fibroblast cell line); assay: In vitro chromosomal aberration assay; conditions: S9 (+), 6~18 hr; for Gap / Numerical aberrations, PP + ER / Structural aberrations, Chromatid type, ctb / Structural aberrations, Chromatid type, cte / Structural aberrations, Chromosome type, csb / Structural aberrations, Chromosome type, cse / Structural aberrations, Others: 200 cells

Oc1ccc(-c2ccc3cc(O)ccc3c2)c(O)c1 [HS-1793, 4-(6-hydroxy-2-naphthyl)-1,3-benzenediol]
Number of reverse mutants/plate (Mean ± SD) ([1]; with S9 activation, 78.1 μg/plate): 39 ± 3 reverse mutants/plate
Number of reverse mutants/plate (Mean ± SD) ([1]; with S9 activation, 156.3 μg/plate): 40 ± 2 reverse mutants/plate
Number of reverse mutants/plate (Mean ± SD) ([1]; with S9 activation, 312.5 μg/plate): 42 ± 3 reverse mutants/plate
Number of reverse mutants/plate (Mean ± SD) ([1]; with S9 activation, 625 μg/plate): 38 ± 3 reverse mutants/plate
Number of reverse mutants/plate (Mean ± SD) ([1]; with S9 activation, 1,250 μg/plate): 37 ± 2 reverse mutants/plate
Number of reverse mutants/plate (Mean ± SD) ([1]; with S9 activation, 2,500 μg/plate): 43 ± 3 reverse mutants/plate
Number of reverse mutants/plate (Mean ± SD) ([1]; with S9 activation, 5,000 μg/plate): 40 ± 2 reverse mutants/plate
Number of reverse mutants/plate (Mean ± SD) ([1]; without S9 activation, 78.1 μg/plate): 39 ± 3 reverse mutants/plate
Number of reverse mutants/plate (Mean ± SD) ([1]; without S9 activation, 156.3 μg/plate): 33 ± 3 reverse mutants/plate
Number of reverse mutants/plate (Mean ± SD) ([1]; without S9 activation, 312.5 μg/plate): 37 ± 2 reverse mutants/plate
Number of reverse mutants/plate (Mean ± SD) ([1]; without S9 activation, 625 μg/plate): 36 ± 2 reverse mutants/plate
Number of reverse mutants/plate (Mean ± SD) ([1]; without S9 activation, 1,250 μg/plate): 36 ± 3 reverse mutants/plate
Number of reverse mutants/plate (Mean ± SD) ([1]; without S9 activation, 2,500 μg/plate): 32 ± 1 reverse mutants/plate
Number of reverse mutants/plate (Mean ± SD) ([1]; without S9 activation, 5,000 μg/plate): 36 ± 2 reverse mutants/plate
Number of reverse mutants/plate (Mean ± SD) ([2]; TA98, with S9 activation, 78.1 μg/plate): 40 ± 4 reverse mutants/plate
Number of reverse mutants/plate (Mean ± SD) ([2]; TA98, with S9 activation, 312.5 μg/plate): 43 ± 8 reverse mutants/plate
Number of reverse mutants/plate (Mean ± SD) ([2]; TA98, with S9 activation, 625 μg/plate): 42 ± 4 reverse mutants/plate
Number of reverse mutants/plate (Mean ± SD) ([2]; TA98, with S9 activation, 1,250 μg/plate): 43 ± 4 reverse mutants/plate
Number of reverse mutants/plate (Mean ± SD) ([2]; TA98, with S9 activation, 2,500 μg/plate): 44 ± 4 reverse mutants/plate
Number of reverse mutants/plate (Mean ± SD) ([2]; TA98, with S9 activation, 5,000 μg/plate): 33 ± 2 reverse mutants/plate
Number of reverse mutants/plate (Mean ± SD) ([2]; TA98, without S9 activation, 78.1 μg/plate): 29 ± 2 reverse mutants/plate
Number of reverse mutants/plate (Mean ± SD) ([2]; TA98, without S9 activation, 156.3 μg/plate): 27 ± 2 reverse mutants/plate
Number of reverse mutants/plate (Mean ± SD) ([2]; TA98, without S9 activation, 312.5 μg/plate): 30 ± 4 reverse mutants/plate
Number of reverse mutants/plate (Mean ± SD) ([2]; TA98, without S9 activation, 625 μg/plate): 26 ± 3 reverse mutants/plate
Number of reverse mutants/plate (Mean ± SD) ([2]; TA98, without S9 activation, 1,250 μg/plate): 25 ± 2 reverse mutants/plate
Number of reverse mutants/plate (Mean ± SD) ([2]; TA98, without S9 activation, 2,500 μg/plate): 28 ± 1 reverse mutants/plate
Number of reverse mutants/plate (Mean ± SD) ([2]; TA98, without S9 activation, 5,000 μg/plate): 27 ± 3 reverse mutants/plate
Number of reverse mutants/plate (Mean ± SD) ([3]; TA100, with S9 activation, 78.1 μg/plate): 116 ± 13 reverse mutants/plate
Number of reverse mutants/plate (Mean ± SD) ([3]; TA100, with S9 activation, 156.3 μg/plate): 109 ± 8 reverse mutants/plate
Number of reverse mutants/plate (Mean ± SD) ([3]; TA100, with S9 activation, 312.5 μg/plate): 114 ± 4 reverse mutants/plate
Number of reverse mutants/plate (Mean ± SD) ([3]; TA100, with S9 activation, 625 μg/plate): 106 ± 19 reverse mutants/plate
Number of reverse mutants/plate (Mean ± SD) ([3]; TA100, with S9 activation, 1,250 μg/plate): 108 ± 14 reverse mutants/plate
Number of reverse mutants/plate (Mean ± SD) ([3]; TA100, with S9 activation, 2,500 μg/plate): 118 ± 11 reverse mutants/plate
Number of reverse mutants/plate (Mean ± SD) ([3]; TA100, with S9 activation, 5,000 μg/plate): 106 ± 9 reverse mutants/plate
Number of reverse mutants/plate (Mean ± SD) ([3]; TA100, without S9 activation, 78.1 μg/plate): 121 ± 8 reverse mutants/plate
Number of reverse mutants/plate (Mean ± SD) ([3]; TA100, without S9 activation, 156.3 μg/plate): 117 ± 11 reverse mutants/plate
Number of reverse mutants/plate (Mean ± SD) ([3]; TA100, without S9 activation, 312.5 μg/plate): 116 ± 9 reverse mutants/plate
Number of reverse mutants/plate (Mean ± SD) ([3]; TA100, without S9 activation, 625 μg/plate): 124 ± 6 reverse mutants/plate
Number of reverse mutants/plate (Mean ± SD) ([3]; TA100, without S9 activation, 1,250 μg/plate): 107 ± 12 reverse mutants/plate
Number of reverse mutants/plate (Mean ± SD) ([3]; TA100, without S9 activation, 2,500 μg/plate): 108 ± 6 reverse mutants/plate
Number of reverse mutants/plate (Mean ± SD) ([3]; TA100, without S9 activation, 5,000 μg/plate): 119 ± 12 reverse mutants/plate
Growth index ([4]; 6.25 μg/ml): 98%
Total frequency (+) Gap ([4]; 6.25 μg/ml): 1.5%
Total frequency (−) Gap ([4]; 6.25 μg/ml): 1%
Gap ([4]; 6.25 μg/ml): 1
Numerical aberrations, PP + ER ([4]; 6.25 μg/ml): 0
Structural aberrations, Chromatid type, ctb ([4]; 6.25 μg/ml): 1
Structural aberrations, Chromatid type, cte ([4]; 6.25 μg/ml): 1
Structural aberrations, Chromosome type, csb ([4]; 6.25 μg/ml): 0
Structural aberrations, Chromosome type, cse ([4]; 6.25 μg/ml): 0
Structural aberrations, Others ([4]; 6.25 μg/ml): 0
Growth index ([4]; 12.5 μg/ml): 95%
Total frequency (+) Gap ([4]; 12.5 μg/ml): 1%
Total frequency (−) Gap ([4]; 12.5 μg/ml): 0.5%
Gap ([4]; 12.5 μg/ml): 1
Numerical aberrations, PP + ER ([4]; 12.5 μg/ml): 0
Structural aberrations, Chromatid type, ctb ([4]; 12.5 μg/ml): 0
Structural aberrations, Chromatid type, cte ([4]; 12.5 μg/ml): 1
Structural aberrations, Chromosome type, csb ([4]; 12.5 μg/ml): 0
Structural aberrations, Chromosome type, cse ([4]; 12.5 μg/ml): 0
Structural aberrations, Others ([4]; 12.5 μg/ml): 0
Growth index ([4]; 25 μg/ml): 89%
Total frequency (+) Gap ([4]; 25 μg/ml): 3.5%
Total frequency (−) Gap ([4]; 25 μg/ml): 2.5%
Gap ([4]; 25 μg/ml): 2
Numerical aberrations, PP + ER ([4]; 25 μg/ml): 0
Structural aberrations, Chromatid type, ctb ([4]; 25 μg/ml): 2
Structural aberrations, Chromatid type, cte ([4]; 25 μg/ml): 3
Structural aberrations, Chromosome type, csb ([4]; 25 μg/ml): 0
Structural aberrations, Chromosome type, cse ([4]; 25 μg/ml): 0
Structural aberrations, Others ([4]; 25 μg/ml): 0
Total frequency (+) Gap ([4]; 50 μg/ml): 3%
Total frequency (−) Gap ([4]; 50 μg/ml): 2.5%
Gap ([4]; 50 μg/ml): 1
Numerical aberrations, PP + ER ([4]; 50 μg/ml): 0
Structural aberrations, Chromatid type, ctb ([4]; 50 μg/ml): 3
Structural aberrations, Chromosome type, csb ([4]; 50 μg/ml): 0
Structural aberrations, Chromosome type, cse ([4]; 50 μg/ml): 0
